# Reference: US9434993B2, “Systems for identifying cosmetic agents for skin care compositions” (The Procter & Gamble Company, priority 2011, dated 2016)
# Entries after “also recorded” stand apart in the source; their conditions may differ.
# What was measured:
# BJ fibroblasts = assay: Microscopic evaluation of cell morphology, BJ fibroblasts; format: cell-based, human; conditions: 10 μM in DMSO for 6 hr; vs 0.1% DMSO vehicle control
# Method: (§1) All cells were incubated at 37° C. in a humidified incubator with 5% CO2. At t=−24 hours cells were trypsinized from T-75 flasks and plated into 6-well plates in basal growth medium. At t=0 media was removed and replaced with the appropriate dosing solution as per the experimental design. Dosing solutions were prepared the previous day in sterile 4 ml Falcon snap cap tubes. Pure test materials may be prepared at a concentration of 1-200 μM, and botanical extracts may be prepared at a concentration of 0.001 to 1% by weight of the dosing solution. After 6 to 24 hours of chemical exposure, cells were viewed and imaged. The wells were examined with a microscope before cell lysis and RNA isolation to evaluate for morphologic evidence of toxicity. […] Cells were then lysed with 350 ul/well of RLT buffer containing β-mercaptoethanol (Qiagen, Valencia, Calif.), transferred to a 96-well plate, and stored at −20° C.
# [1] = tested on: Telomerized-keratinocytes; assay: Microscopic evaluation of cell morphology, telomerized keratinocytes; format: cell-based, human; conditions: 10 μM in DMSO for 6 hr; vs 0.1% DMSO vehicle control
# Method: as §1
smiles,measurement,setting,value
"CC1=C(/C=C/C(C)=C/C=C/C(C)=C/C(=O)O)C(C)(C)CCC1 [tRA, all-trans-retinoic acid]",morphology of treated fibroblasts,BJ fibroblasts,no apparent morphologic effect
same,morphology of treated keratinocytes,[1],marked morphologic changes; also recorded: dramatic morphologic changes
